From patent US11505543B2, “4-oxo-3,4-dihydroquinazoline compounds as inhibitors of human immunodeficiency virus replication” (VIIV HEALTHCARE UK (NO.5) LIMITED, priority 2018, dated 2022)

Tests used:
[1] = test system: recombinant NL4-3 virus (nef section replaced with Renilla luciferase gene) in MT-2 cells; assay: HIV cell culture assay (antiviral activity, luciferase readout); assay type: cell-based; conditions: Renilla, NL43, MT-2 cells infected for 4-5 days with recombinant NL4-3 Renilla luciferase virus, serial dilutions of compound
How it was run: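 Test compound in serial dilution was present while MT-2 cells were infected for 4–5 days with recombinant NL4-3 virus made in 293T cells. Antiviral activity was quantified as Renilla luciferase activity, read with a live-cell substrate. EC50 came from the median-effect equation.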

[2] = Compound cytotoxicity, XTT-based colorimetric assay; assay type: cell-based; conditions: human, uninfected MT2 cells, day 4, XTT
How it was run: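 Run under the antiviral-assay protocol but without virus. Viability was read on day 4 and CC50 values were derived from the readout.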

Compound | EC50 [1] [nM] | CC50 at 4 day [2] [nM]
Cc1ccnc(-c2ccc3c(=O)n(-c4ccc(Cl)c5c(NS(=O)(=O)C6CC6)nn(CC(F)F)c45)c([C@H](Cc4cc(F)cc(F)c4)NC(=O)Cn4nc(C(F)F)c5c4C(F)(F)[C@@H]4C[C@H]54)nc3c2)n1 [Example 159, N-((S)-1-(3-(4-chloro-3-(cyclopropanesulfonamido)-1-(2,2-difluoroethyl)-1H-indazol-7-yl)-7-(4-methylpyrimidin-2-yl)-4-oxo-3,4-dihydroquinazolin-2-yl)-2-(3,5-difluorophenyl)ethyl)-2-((3bS,4aR)-3-(difluoromethyl)-5,5-difluoro-3b,4,4a,5-tetrahydro-1H-cyclopropa[3,4]cyclopenta[1,2-c]pyrazol-1-yl)acetamide] | 0.1 | > 500
CS(=O)(=O)c1ccccc1-c1ccc2c(=O)n(-c3ccc(Cl)c4c(NS(=O)(=O)C5CC5)nn(CC(F)F)c34)c([C@H](Cc3cc(F)cc(F)c3)NC(=O)Cn3nc(C(F)F)c4c3C(F)(F)[C@@H]3C[C@H]43)nc2c1 [Example 160, N-((S)-1-(3-(4-chloro-3-(cyclopropanesulfonamido)-1-(2,2-difluoroethyl)-1H-indazol-7-yl)-7-(2-(methylsulfonyl)phenyl)-4-oxo-3,4-dihydroquinazolin-2-yl)-2-(3,5-difluorophenyl)ethyl)-2-((3bS,4aR)-3-(difluoromethyl)-5,5-difluoro-3b,4,4a,5-tetrahydro-1H-cyclopropa[3,4]cyclopenta[1,2-c]pyrazol-1-yl)acetamide] | 0.082 | > 500
Cc1cccc(-c2ccc3c(=O)n(-c4ccc(Cl)c5c(NS(C)(=O)=O)nn(CC(F)(F)F)c45)c([C@H](Cc4cc(F)cc(F)c4)NC(=O)Cn4nc(C(F)F)c5c4C(F)(F)[C@@H]4C[C@H]54)nc3c2)n1 [Example 161, N-((S)-1-(3-(4-chloro-3-(methylsulfonamido)-1-(2,2,2-trifluoroethyl)-1H-indazol-7-yl)-7-(6-methylpyridin-2-yl)-4-oxo-3,4-dihydroquinazolin-2-yl)-2-(3,5-difluorophenyl)ethyl)-2-((3bS,4aR)-3-(difluoromethyl)-5,5-difluoro-3b,4,4a,5-tetrahydro-1H-cyclopropa[3,4]cyclopenta[1,2-c]pyrazol-1-yl)acetamide] | 0.12 | > 500
Cc1ccnc(-c2ccc3c(=O)n(-c4ccc(Cl)c5c(NS(C)(=O)=O)nn(CC(F)(F)F)c45)c([C@H](Cc4cc(F)cc(F)c4)NC(=O)Cn4nc(C(F)F)c5c4C(F)(F)[C@@H]4C[C@H]54)nc3c2)n1 [Example 162, N-((S)-1-(3-(4-chloro-3-(methylsulfonamido)-1-(2,2,2-trifluoroethyl)-1H-indazol-7-yl)-7-(4-methylpyrimidin-2-yl)-4-oxo-3,4-dihydroquinazolin-2-yl)-2-(3,5-difluorophenyl)ethyl)-2-((3bS,4aR)-3-(difluoromethyl)-5,5-difluoro-3b,4,4a,5-tetrahydro-1H-cyclopropa[3,4]cyclopenta[1,2-c]pyrazol-1-yl)acetamide] | 0.059 | > 500
CS(=O)(=O)Nc1nn(CC(F)(F)F)c2c(-n3c([C@H](Cc4cc(F)cc(F)c4)NC(=O)Cn4nc(C(F)F)c5c4C(F)(F)[C@@H]4C[C@H]54)nc4cc(-c5ncccn5)ccc4c3=O)ccc(Cl)c12 [Example 163, N-((S)-1-(3-(4-chloro-3-(methylsulfonamido)-1-(2,2,2-trifluoroethyl)-1H-indazol-7-yl)-4-oxo-7-(pyrimidin-2-yl)-3,4-dihydroquinazolin-2-yl)-2-(3,5-difluorophenyl)ethyl)-2-((3bS,4aR)-3-(difluoromethyl)-5,5-difluoro-3b,4,4a,5-tetrahydro-1H-cyclopropa[3,4]cyclopenta[1,2-c]pyrazol-1-yl)acetamide] | 0.046 | > 500
Cc1cc(C)nc(-c2ccc3c(=O)n(-c4ccc(Cl)c5c(NS(C)(=O)=O)nn(CC(F)(F)F)c45)c([C@H](Cc4cc(F)cc(F)c4)NC(=O)Cn4nc(C(F)F)c5c4C(F)(F)[C@@H]4C[C@H]54)nc3c2)n1 [Example 164, N-((S)-1-(3-(4-chloro-3-(methylsulfonamido)-1-(2,2,2-trifluoroethyl)-1H-indazol-7-yl)-7-(4,6-dimethylpyrimidin-2-yl)-4-oxo-3,4-dihydroquinazolin-2-yl)-2-(3,5-difluorophenyl)ethyl)-2-((3bS,4aR)-3-(difluoromethyl)-5,5-difluoro-3b,4,4a,5-tetrahydro-1H-cyclopropa[3,4]cyclopenta[1,2-c]pyrazol-1-yl)acetamide] | 0.096 | > 500
Cc1nccnc1-c1ccc2c(=O)n(-c3ccc(Cl)c4c(NS(C)(=O)=O)nn(CC(F)(F)F)c34)c([C@H](Cc3cc(F)cc(F)c3)NC(=O)Cn3nc(C(F)F)c4c3C(F)(F)[C@@H]3C[C@H]43)nc2c1 [Example 165, N-((S)-1-(3-(4-chloro-3-(methylsulfonamido)-1-(2,2,2-trifluoroethyl)-1H-indazol-7-yl)-7-(3-methylpyrazin-2-yl)-4-oxo-3,4-dihydroquinazolin-2-yl)-2-(3,5-difluorophenyl)ethyl)-2-((3bS,4aR)-3-(difluoromethyl)-5,5-difluoro-3b,4,4a,5-tetrahydro-1H-cyclopropa[3,4]cyclopenta[1,2-c]pyrazol-1-yl)acetamide] | 0.05 | > 500
Cc1ncc(-c2ccc3c(=O)n(-c4ccc(Cl)c5c(NS(C)(=O)=O)nn(CC(F)(F)F)c45)c([C@H](Cc4cc(F)cc(F)c4)NC(=O)Cn4nc(C(F)F)c5c4C(F)(F)[C@@H]4C[C@H]54)nc3c2)cn1 [Example 166, N-((S)-1-(3-(4-chloro-3-(methylsulfonamido)-1-(2,2,2-trifluoroethyl)-1H-indazol-7-yl)-7-(2-methylpyrimidin-5-yl)-4-oxo-3,4-dihydroquinazolin-2-yl)-2-(3,5-difluorophenyl)ethyl)-2-((3bS,4aR)-3-(difluoromethyl)-5,5-difluoro-3b,4,4a,5-tetrahydro-1H-cyclopropa[3,4]cyclopenta[1,2-c]pyrazol-1-yl)acetamide] | 0.037 | > 500
CS(=O)(=O)Nc1nn(CC(F)(F)F)c2c(-n3c([C@H](Cc4cc(F)cc(F)c4)NC(=O)Cn4nc(C(F)F)c5c4C(F)(F)[C@@H]4C[C@H]54)nc4cc(-c5ccccc5S(C)(=O)=O)ccc4c3=O)ccc(Cl)c12 [Example 167, N-((S)-1-(3-(4-chloro-3-(methylsulfonamido)-1-(2,2,2-trifluoroethyl)-1H-indazol-7-yl)-7-(2-(methylsulfonyl)phenyl)-4-oxo-3,4-dihydroquinazolin-2-yl)-2-(3,5-difluorophenyl)ethyl)-2-((3bS,4aR)-3-(difluoromethyl)-5,5-difluoro-3b,4,4a,5-tetrahydro-1H-cyclopropa[3,4]cyclopenta[1,2-c]pyrazol-1-yl)acetamide] | 0.08 | > 500
Cn1nc(NS(C)(=O)=O)c2c(Cl)ccc(-n3c([C@H](Cc4cc(F)cc(F)c4)NC(=O)Cn4nc(C(F)F)c5c4C(F)(F)[C@@H]4C[C@H]54)nc4cc(-c5ccc(F)c(F)c5F)ccc4c3=O)c21 [Example 168, N-((S)-1-(3-(4-chloro-1-methyl-3-(methylsulfonamido)-1H-indazol-7-yl)-4-oxo-7-(2,3,4-trifluorophenyl)-3,4-dihydroquinazolin-2-yl)-2-(3,5-difluorophenyl)ethyl)-2-((3bS,4aR)-3-(difluoromethyl)-5,5-difluoro-3b,4,4a,5-tetrahydro-1H-cyclopropa[3,4]cyclopenta[1,2-c]pyrazol-1-yl)acetamide] | 0.7 | > 500
Cn1nc(NS(C)(=O)=O)c2c(Cl)ccc(-n3c([C@H](Cc4cc(F)cc(F)c4)NC(=O)Cn4nc(C(F)F)c5c4C(F)(F)[C@@H]4C[C@H]54)nc4cc(-c5ccc(F)c(C#N)c5F)ccc4c3=O)c21 [Example 170, N-((S)-1-(3-(4-chloro-1-methyl-3-(methylsulfonamido)-1H-indazol-7-yl)-7-(3-cyano-2,4-difluorophenyl)-4-oxo-3,4-dihydroquinazolin-2-yl)-2-(3,5-difluorophenyl)ethyl)-2-((3bS,4aR)-3-(difluoromethyl)-5,5-difluoro-3b,4,4a,5-tetrahydro-1H-cyclopropa[3,4]cyclopenta[1,2-c]pyrazol-1-yl)acetamide] | 0.58 | > 500
Cn1nc(NS(C)(=O)=O)c2c(Cl)ccc(-n3c([C@H](Cc4cc(F)cc(F)c4)NC(=O)Cn4nc(C(F)F)c5c4C(F)(F)[C@@H]4C[C@H]54)nc4cc(-c5c(F)cc(F)cc5F)ccc4c3=O)c21 [Example 172, N-((S)-1-(3-(4-chloro-1-methyl-3-(methylsulfonamido)-1H-indazol-7-yl)-4-oxo-7-(2,4,6-trifluorophenyl)-3,4-dihydroquinazolin-2-yl)-2-(3,5-difluorophenyl)ethyl)-2-((3bS,4aR)-3-(difluoromethyl)-5,5-difluoro-3b,4,4a,5-tetrahydro-1H-cyclopropa[3,4]cyclopenta[1,2-c]pyrazol-1-yl)acetamide] | 0.25 | > 500
Cn1nc(NS(C)(=O)=O)c2c(Cl)ccc(-n3c([C@H](Cc4cc(F)cc(F)c4)NC(=O)Cn4nc(C(F)F)c5c4C(F)(F)[C@@H]4C[C@H]54)nc4cc(-c5ccc(F)c(F)c5)ccc4c3=O)c21 [Example 173, N-((S)-1-(3-(4-chloro-1-methyl-3-(methylsulfonamido)-1H-indazol-7-yl)-7-(3,4-difluorophenyl)-4-oxo-3,4-dihydroquinazolin-2-yl)-2-(3,5-difluorophenyl)ethyl)-2-((3bS,4aR)-3-(difluoromethyl)-5,5-difluoro-3b,4,4a,5-tetrahydro-1H-cyclopropa[3,4]cyclopenta[1,2-c]pyrazol-1-yl)acetamide] | 0.68 | > 500
